Experimental data published in article PMC8556439, “Modeling the time course of ComX: towards molecular process control for Bacillus wild-type cultivations” (AMB Express, 2021).

Experiments:
[1] = assay type: physicochemical; settings: pH 7
Protocol: (§1) Due to the high complexity of ComX purification, the pheromone was measured with a bioassay based on the principle provided by Magnuson et al. ([1994]). Thereby, reporter strain CT2 (∆comX::kan; PsrfA-lacZ) can be used as an assay reagent and a ComX-dependent expression of lacZ can be determined by measuring the β-galactosidase activity with the Miller assay (Miller [1972]). The employed bioassay is further in line with a recently published method, provided by Dogsa et al. ([2021]). A detailed description of the working principle and further validation experiments are given in the supplementary information. In brief, a main culture of strain CT2 was inoculated with preculture II to a starting OD600 of 0.1 and incubated for 3 h at 120 rpm and 37 °C. […] Bnk values were measured using the respective sterile cultivation medium instead of sampled cell-free supernatant. The limit of detection (LOD) and limit of quantification (LOQ) was calculated from 20 samples using Eqs. […]
(§2) For autodegradation studies, strain DSM 10^ T was additionally cultivated in 3000 mL shake flasks using MSM with 40 g/L glucose. […] The incubation was performed in biological duplicates for 24 h at 120 rpm and 37 °C and samples were taken regularly and analyzed for OD600, ComX and peptidase activity.

[2] = test system: extracellular proteases; test: ComX extracellular degradation in cell-free supernatant of bioreactor cultivation; assay type: in vitro ADME, B. subtilis DSM 10T; settings: spectinomycin 100 µg/mL, incubated 120 rpm, 37 °C, sampled 0-8 h, ComX bioassay, biological duplicates
Protocol: as §1
Cell-free supernatant was obtained from bioreactor cultivation with 40 g/L glucose by two centrifugation steps for 30 min at 4816 g and 4 °C (Heraeus X3R, Thermo Fisher Scientific GmbH, Braunschweig, Germany). […] Samples were taken after t = 0, 1, 2, 3, 4, 6 and 8 h and analyzed for ComX and peptidase activity and the ComX degradation rate in (MU/h) was calculated from the measured data.

[3] = test system: B. subtilis BKK31700 (∆comX); test: ComX intracellular degradation: ComX deficient strain cultivated in spent medium; assay type: in vitro ADME; settings: ComX bioassay, biological duplicates
Protocol: as §1, §2

[4] = test system: PsrfA; settings: ref Magnuson et al. [1994], Okada et al. [2005], [2007], Dogsa et al. [2021], cited from earlier work
Protocol: (§3) To allow for this optimization strategy, profound quantitative knowledge must be gathered as an initial step. This was done in the presented study regarding surfactin production and ComX pheromone progression, providing new insights into this crosstalk. Several bioreactor batch fermentations with different initial glucose concentrations were performed to illustrate different lengths of growth phases of B. subtilis DSM 10^ T. Thereby the general progression of ComX activity was consistent for all bioreactor set-ups, regardless of varying experimental set-ups. During exponential growth, an initi ...

[5] = cited from earlier work
Protocol: The LC–MS analysis of extracellular ComX also confirmed degradation after reaching a peak during cultivation process, which was also detected by the bioassay (Additional file 1: Figure S2a). Resembling Henkel et al. ([2013]), experiments were performed with respect to (i) autodegradation, (ii) extracellular degradation and (iii) intracellular degradation (Fig. 1), to obtain deeper understanding of the degradation kinetics of ComX. […] Here, an increase in EACSP was initially observed and, after reaching a maximum, a slight downward trend was seen, which was also accompanied by calculated degradation rates. The highest modeled EACSP = 66.3 ∆A/(h·mL) was reached after 20.5 h, which is concomitant to the highest measured degradation rate after 16 h. […] However, to unveil a potential autodegradation effe ... || To allow for this optimization strategy, profound quantitative knowledge must be gathered as an initial step. This was done in the presented study regarding surfactin production and ComX pheromone progression, providing new insights into this crosstalk. Several bioreactor batch fermentations with different initial glucose concentrations were performed to illustrate different lengths of growth phases of B. subtilis DSM 10^ T. Thereby the general progression of ComX activity was consistent for all bioreactor set-ups, regardless of varying experimental set-ups. During exponential growth, an initi ...

[6] = ref Rangarajan and Clarke [2015]; cited from earlier work
Protocol: as §3

Row | Substance | remaining ComX activity after 8 h of incubation (autodegradation study) [1] | ComX degradation rate (highest) ([2]; cell-free supernatant from bioreactor cultivation 40 g/L glucose taken after approximately 16 h) | ComX degradation rate ([2]; cell-free supernatant from bioreactor cultivation 40 g/L glucose taken after approximately 35 h) | ComX activity remaining after 24 h of cultivation (intracellular degradation study) ([3]; BKK31700 cells in spent filtered medium of DSM 23778, 4 g/L glucose added, 24 h, 120 rpm, 37 °C) | initial ComX activity at t0 (intracellular degradation study) ([3]; washed BKK31700 cells resuspended in spent filtered medium of DSM 23778, 4 g/L glucose added) | ComX concentration at saturation of response [4] | EC50 ([4]; read-out: ComX concentration at half maximum response) | heat stability of ComX (time stable) ([5]; at 80 °C, ref Magnuson et al. ([1994])) | sensitivity of ComX to extracellular proteases ([5]; especially serine proteases, ref Spacapan et al. ([2018]) and Magnuson et al. ([1994])) | storage time after which a degradation effect was observed ([5]; purified ComX, storage, ref Dogsa et al. ([2021])) | stability of ComX in acidic environments ([5]; ref Okada et al. [2007]) | pH at which surfactin precipitation may occur [6]
1 | ADPITRQ WGD [ComX, quorum sensing pheromone of B. subtilis, farnesylated peptide secreted into culture supernatant; not purified, measured in supernatant] | 251.1 ± 17.1 MU | 9.2 ± 2.1 MU/h | 8.4 ± 0.5 MU/h | 103.2 ± 11.4 MU | 96.5 ± 3.0 MU | around 10 nM | 3 to 4 nM | 12 h | sensitive to extracellular proteases | 100 days | does not appear to be stable | 
2 | surfactin |  |  |  |  |  |  |  |  |  |  |  | 5.0 to 6.0 pH
